pIC50: −log10 of the molar value. Values after ≈ are worked out from the molar mass of the structure shown. Like-named read-outs stand apart in the source and are kept apart here.

Broadly, the pIC50 is the negative decadic logarithm of the IC50, by convention in mol/L.

The test system of assay [1] is sensitive tuberculosis (H37Rv). Briefly: Anti-tubercle bacillus activity, liquid medium dilution MIC. The assay is classed as cell-based. To be noted: for MIC: Mycobacterium tuberculosis, 168 h, alone, 7 days at 37° C., read-out: antibacterial activity (MIC) of β-lactam agent alone.
The target of the next assay is T1, AmpC (Pseudomonas aeruginosa, UniProt P24735).
T1 construct: AmpC, TEM-1, KPC-2 or OXA-2 domain excluding signal peptide was amplified with PCR; made in house; host or cells: Escherichia coli BL21 (DE3), pET-28b(+)
T1 sequence (P24735 27-397): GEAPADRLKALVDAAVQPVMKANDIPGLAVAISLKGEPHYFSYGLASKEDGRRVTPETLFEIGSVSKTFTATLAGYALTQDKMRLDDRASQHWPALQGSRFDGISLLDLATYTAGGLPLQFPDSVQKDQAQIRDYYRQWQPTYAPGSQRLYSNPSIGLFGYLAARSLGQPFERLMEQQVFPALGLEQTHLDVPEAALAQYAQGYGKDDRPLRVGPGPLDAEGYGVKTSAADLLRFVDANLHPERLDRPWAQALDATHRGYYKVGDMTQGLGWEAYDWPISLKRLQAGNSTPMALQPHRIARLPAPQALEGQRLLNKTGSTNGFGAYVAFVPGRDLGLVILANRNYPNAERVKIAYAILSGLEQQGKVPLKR
The assay is described as follows: biochemical.

For the next assay, the target named is T2, KPC-2 (Klebsiella pneumoniae, UniProt Q9F663).
T2 construct: AmpC, TEM-1, KPC-2 or OXA-2 domain excluding signal peptide was amplified with PCR; made in house; host or cells: Escherichia coli BL21 (DE3), pET-28b(+)
T2 sequence (Q9F663 25-293, looked up): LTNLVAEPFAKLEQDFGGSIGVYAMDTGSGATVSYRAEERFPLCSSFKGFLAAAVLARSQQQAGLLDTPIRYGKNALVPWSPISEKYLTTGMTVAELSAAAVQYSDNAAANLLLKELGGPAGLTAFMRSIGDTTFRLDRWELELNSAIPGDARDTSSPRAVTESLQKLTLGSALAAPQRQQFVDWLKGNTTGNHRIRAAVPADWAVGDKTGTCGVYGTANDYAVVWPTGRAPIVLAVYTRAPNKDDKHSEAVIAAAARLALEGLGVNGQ
The assay is described as follows: β-Lactamase inhibitory activity (nitrocefin hydrolysis), KPC-2. The assay is classed as biochemical. To be noted: KPC-2 0.5 nM, 100 μM nitrocefin, pre-incubation 30° C. 10 minutes.

For another assay, the target named is T3, TEM-1 (Escherichia coli, UniProt P62593).
T3 construct: AmpC, TEM-1, KPC-2 or OXA-2 domain excluding signal peptide was amplified with PCR; made in house; host or cells: Escherichia coli BL21 (DE3), pET-28b(+)
T3 sequence (P62593 24-286 limits assumed): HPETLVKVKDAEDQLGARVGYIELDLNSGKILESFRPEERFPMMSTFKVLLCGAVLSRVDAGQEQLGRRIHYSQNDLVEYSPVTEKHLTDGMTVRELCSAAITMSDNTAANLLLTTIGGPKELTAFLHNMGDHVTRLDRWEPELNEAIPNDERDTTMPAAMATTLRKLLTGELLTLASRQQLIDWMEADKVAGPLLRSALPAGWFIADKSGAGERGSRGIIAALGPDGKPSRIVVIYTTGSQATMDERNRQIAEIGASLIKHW
The assay is described as follows: β-Lactamase inhibitory activity (nitrocefin hydrolysis), TEM-1. The assay is classed as biochemical. As to conditions: TEM-1 0.1 nM, 100 μM nitrocefin, pre-incubation 30° C. 10 minutes. A digest of the protocol:
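Recombinant TEM-1 (signal peptide removed), expressed in E. coli BL21(DE3), hydrolysing 100 μM nitrocefin (final) in 50 mM phosphate pH 7.0 with 2.5% DMSO and 10 μg/mL BSA. Incubated 20 min at 30° C; A492 read. Potency given as bands A (<0.1 μM) to E (≥10 μM).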

The next assay deals with T4, OXA-2 (Escherichia coli, UniProt P0A1V9).
T4 construct: AmpC, TEM-1, KPC-2 or OXA-2 domain excluding signal peptide was amplified with PCR; made in house; host or cells: Escherichia coli BL21 (DE3), pET-28b(+)
T4 sequence (P0A1V9 22-275): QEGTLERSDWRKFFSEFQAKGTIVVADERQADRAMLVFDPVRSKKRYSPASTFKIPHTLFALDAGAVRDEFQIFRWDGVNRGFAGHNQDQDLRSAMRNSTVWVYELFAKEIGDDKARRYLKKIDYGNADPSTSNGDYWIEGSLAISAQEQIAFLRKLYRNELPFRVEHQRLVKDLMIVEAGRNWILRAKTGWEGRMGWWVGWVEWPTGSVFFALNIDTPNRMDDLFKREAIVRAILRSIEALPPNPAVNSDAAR
Briefly: biochemical. More on the design: species or system P. aeruginosa.

A further assay has as its system E. coli MSC19503. The assay is described as follows: microbe, parasite or virus in culture. The assay is classed as cell-based. As to conditions: Escherichia coli, alone, CTX-M-15 (ESBL) and OXA-1 producing E. coli, agar plate dilution, read-out: antibacterial activity (MIC) of PIPC alone.
Assay [2] relates to K. pneumoniae ATCCBAA-1705. The assay is described as follows: microbe, parasite or virus in culture. To be noted: Klebsiella pneumoniae, ATCCBAA1705, read-out: antibacterial activity (MIC) of PIPC alone.
The test system of assay [3] is P. aeruginosa ATCCBAA-47CR. Briefly: microbe, parasite or virus in culture. The assay is classed as cell-based. As to conditions: Pseudomonas aeruginosa, ATCCBAA47CR; alone; AmpC constitutively-expressing P. aeruginosa; agar plate dilution; read-out: antibacterial activity (MIC) of PIPC alone.
Where [4] appears, read: OXA-2 2 nM, 100 μM nitrocefin, pre-incubation 30° C. 10 minutes, read-out: β-Lactamase inhibitory activity OXA-2 (IC50).

For `CC1(C)S[C@@H]2[C@H](NC(=O)[C@H](N)c3ccccc3)C(=O)N2[C@H]1C(=O)O` [ABPC, ampicillin, reference compound], the MIC in assay [1] is 16 µg/mL (≈ 45.8 µM).
Regarding `CC1(C)S[C@@H]2[C@H](NC(=O)[C@H](N)c3ccc(O)cc3)C(=O)N2[C@H]1C(=O)O` [AMPC, amoxicillin, reference compound], in assay [1], the MIC was 16 µg/mL (≈ 43.8 µM).
Take `C[C@@H](O)[C@H]1C(=O)N2C(C(=O)[O-])=C(SC3Cn4cnc[n+]4C3)[C@H](C)[C@H]12` (stereo partly shown) [BIPM, biapenem, reference compound]: the MIC in assay [1] was 1 µg/mL (≈ 2.85 µM).
For the compound `NCCONC(=O)[C@@H]1CC[C@@H]2CN1C(=O)N2OS(=O)(=O)O` [Example 59, (2S,5R)—N-(2-Aminoethoxy)-7-oxo-6-(sulfooxy)-1,6-diazabicyclo[3.2.1]octane-2-carboxamide], the negative logarithm of the IC50 (pIC50) is 6.00 to 7.00 at AmpC, 6.00 to 7.00 against KPC-2, above 7.00 against TEM-1 and 5.52 to 6.00 at OXA-2 (setting [4]). Besides, the “antibacterial activity (MIC) of ABPC in combinatorial use” value in assay [1] (ABPC + 4 μg/mL compound) was 2 µg/mL. Besides, the “antibacterial activity (MIC) of AMPC in combinatorial use” value in assay [1] (AMPC + 4 μg/mL compound) was found to be 2 µg/mL. Further, the “antibacterial activity (MIC) of BIPM in combinatorial use” value in assay [1] (BIPM + 4 μg/mL compound) was 1 µg/mL. In addition, the “antibacterial activity (MIC) of MEPM in combinatorial use” value in assay [1] (MEPM + 4 μg/mL compound) was 0.5 µg/mL. Also, the “antibacterial activity (MIC) of TBPM in combinatorial use” value in assay [1] (TBPM + 4 μg/mL compound) stood at 0.25 µg/mL.
As to `O=C(NOCCn1cccc1)[C@@H]1CC[C@@H]2CN1C(=O)N2OS(=O)(=O)O` [Example 87, Sodium (2S,5R)-7-oxo-N-[2-(1H-pyrrol-1-yl)ethoxy]-6-(sulfooxy)-1,6-diazabicyclo[3.2.1]octane-2-carboxamide], the pIC50 is above 7.00 on AmpC, above 7.00 at KPC-2, above 7.00 against TEM-1 and 6.00 to 7.00 on OXA-2.
Take `O=C(NOCCn1ccnc1S(=O)(=O)O)[C@@H]1CC[C@@H]2CN1C(=O)N2OS(=O)(=O)O` [Example 88, Disodium 1-{2-[({[(2S,5R)-7-oxo-6-(sulfonateoxy)-1,6-diazabicyclo[3.2.1]oct-2-yl]carbonyl}amino)oxy]ethyl}-1H-Imidazol-2-sulfonate]: the pIC50 against AmpC was 6.00 to 7.00; against KPC-2 it was 6.00 to 7.00; on TEM-1, above 7.00; on OXA-2 (setting [4]), 6.00 to 7.00.
`CN(C)C(=O)CONC(=O)[C@@H]1CC[C@@H]2CN1C(=O)N2OS(=O)(=O)O` [Example 89, Sodium (2S,5R)—N-[2-(dimethylamino)-2-oxoethoxy]-7-oxo-6-(sulfooxy)-1,6-diazabicyclo[3.2.1]octane-2-carboxamide]: the pIC50 was above 7.00 at AmpC, above 7.00 at KPC-2, above 7.00 against TEM-1 and 6.00 to 7.00 on OXA-2.
In the case of `O=C(NOCC(=O)N1CCNCC1)[C@@H]1CC[C@@H]2CN1C(=O)N2OS(=O)(=O)O` [Example 90, (2S,5R)-7-Oxo-N-[2-oxo-2-(piperazin-1-yl)ethoxy]-6-(sulfooxy)-1,6-diazabicyclo[3.2.1]octane-2-carboxamide], the pIC50 on AmpC is above 7.00; on KPC-2, 6.00 to 7.00; against TEM-1 it was above 7.00; on OXA-2 (setting [4]), 6.00 to 7.00.
As to `O=C(NOCC(=O)N1CCOCC1)[C@@H]1CC[C@@H]2CN1C(=O)N2OS(=O)(=O)O` [Example 91, Sodium (2S,5R)—N-[2-(morpholin-4-yl)-2-oxoethoxy]-7-oxo-6-(sulfooxy)-1,6-diazabicyclo[3.2.1]octane-2-carboxamide], the pIC50 against AmpC is above 7.00; against KPC-2, above 7.00; at TEM-1, above 7.00; on OXA-2, 6.00 to 7.00.
In the case of `O=C(NOCC(=O)N1CCCNCC1)[C@@H]1CC[C@@H]2CN1C(=O)N2OS(=O)(=O)O` [Example 92, (2S,5R)—N-[2-(1,4-Diazepan-1-yl)-2-oxoethoxy]-7-oxo-6-(sulfooxy)-1,6-diazabicyclo[3.2.1]octane-2-carboxamide], the pIC50 against AmpC is above 7.00; at KPC-2 it was 6.00 to 7.00; at TEM-1, above 7.00; at OXA-2 (setting [4]) it was 6.00 to 7.00.
`O=C(NOCCN1CCCC1=O)[C@@H]1CC[C@@H]2CN1C(=O)N2OS(=O)(=O)O` [Example 93, Sodium (2S,5R)-7-oxo-N-[2-(2-oxopyrrolidin-1-yl)ethoxy]-6-(sulfooxy)-1,6-diazabicyclo[3.2.1]octane-2-carboxamide]: the pIC50 was above 7.00 against AmpC, 6.00 to 7.00 at KPC-2, above 7.00 against TEM-1 and 6.00 to 7.00 against OXA-2.
Take `O=C(NOCCN1CCNC1=O)[C@@H]1CC[C@@H]2CN1C(=O)N2OS(=O)(=O)O` [Example 94, Sodium (2S,5R)-7-oxo-N-[2-(2-oxoimidazolidin-1-yl)ethoxy]-6-(sulfooxy)-1,6-diazabicyclo[3.2.1]octane-2-carboxamide]: the pIC50 is above 7.00 against AmpC, 6.00 to 7.00 on KPC-2, above 7.00 against TEM-1 and 6.00 to 7.00 on OXA-2.
For `O=C(NOCCO)[C@@H]1CC[C@@H]2CN1C(=O)N2OS(=O)(=O)O` [Example 95, Sodium (2S,5R)—N-(2-hydroxyethoxy)-7-oxo-6-(sulfooxy)-1,6-diazabicyclo[3.2.1]octane-2-carboxamide], the pIC50 was above 7.00 against AmpC, above 7.00 at KPC-2, above 7.00 on TEM-1 and 5.52 to 6.00 at OXA-2.
Regarding `COCCONC(=O)[C@@H]1CC[C@@H]2CN1C(=O)N2OS(=O)(=O)O` [Example 96, Sodium (2S,5R)—N-(2-methoxyethoxy)-7-oxo-6-(sulfooxy)-1,6-diazabicyclo[3.2.1]octane-2-carboxamide], the negative logarithm of the IC50 (pIC50) against AmpC was above 7.00; against KPC-2, 6.00 to 7.00; at TEM-1, above 7.00; against OXA-2, 5.52 to 6.00.
Consider `CS(=O)(=O)CCONC(=O)[C@@H]1CC[C@@H]2CN1C(=O)N2OS(=O)(=O)O` [Example 97, Sodium (2S,5R)—N-[2-(methylsulfonyl)ethoxy]-7-oxo-6-(sulfooxy)-1,6-diazabicyclo[3.2.1]octane-2-carboxamide], for which the pIC50 is above 7.00 against AmpC, above 7.00 on KPC-2, above 7.00 at TEM-1 and 6.00 to 7.00 against OXA-2.
Regarding `C[C@@H](O)[C@H]1C(=O)N2C(C(=O)O)=C(S[C@@H]3CN[C@H](C(=O)N(C)C)C3)[C@H](C)[C@H]12` [MEPM, meropenem, reference compound], the MIC in assay [1] worked out at 1 µg/mL (≈ 2.61 µM).
For `CCN1CCN(C(=O)N[C@@H](C(=O)N[C@@H]2C(=O)N3[C@@H]2SC(C)(C)[C@@H]3C(=O)O)c2ccccc2)C(=O)C1=O` [PIPC, piperacillin], the MIC was above 128 µg/mL in the assay on E. coli MSC19503, above 128 µg/mL in assay [2] and 64 µg/mL (≈ 124 µM) in assay [3].
With `C[C@@H](O)[C@H]1C(=O)N2C(C(=O)O)=C(SC3CN(C4=NCCS4)C3)[C@H](C)[C@H]12` [TBPM, tebipenem, reference compound], in assay [1], the MIC was 0.5 µg/mL (≈ 1.3 µM).

The values are drawn from patent US10556905B2, “Processes for preparing a diazabicyclooctane compound” (priority 2012, dated 2020).
